According to patent US20240300940A1, “Phenothiazinyl Compounds and Uses” (Prosetta Biosciences, Inc., priority 2023, published 2024):
Read-outs that look alike come from different tables or passages of the source.

Experiments:
NL4-3 Rluc virus = assay: microbe, parasite or virus in culture; assay type: cell-based, HIV; conditions: MT-2 cells, MOI 0.02, 96 hours
Hennes-20 cells = assay: Hennes-20 oncology screen; assay type: cell-based; conditions: 72 h, alamar Blue
Procedure: To screen compounds for oncology activity Hennes-20 cells were plated at low (500 cells/well) versus high (15,000 cells/well) densities and treated with DMSO (vehicle) or dose-titration of compounds. The rationale for this screen is that an intrinsically toxic compound should kill cells regardless of density, including in Hennes-20 cells. However, a compound that selectively triggers the arrest of proliferation will inhibit cell growth when plated at a low density will appear cytotoxic due to inhibition of cell growth when plated at a low density but will appear non-toxic to cells plated at a high density where the cells are approaching confluence and the readout detected by a cell viability assay is already close to the maximum.
To conduct the Hennes-20 screen, two 96 well plates were seeded with Hennes 20 cells in parallel where one was plated at a density of 500 cells/well and the other was plated at a density of 15,000 cells/well. 90 uL of minimum essential media was added to each well and plates were placed in a 37 degrees Celsius incubator for 24 hours. The next day, 10 ul of media containing dilutions of compound in DMSO were added to each plate. Six wells on each plate received 10 ul of media containing only DMSO. Each well was gently mixed 5 times with a 100 ul pipette. Plates were incubated at 37 degrees Celsius for 72 hours and then 10 uL of alamar Blue was added to each well. Wells were mixed 5 times then incubated at 37 degrees Celsius for […]. Plates were then read at 530/590.
The rationale for the screen is as follows: Hennes-20 cells lack endogenous apoptosis. Cells plated at low density will proliferate and approach confluence in 72 hrs. A drug that arrests proliferation may have its proliferation blocking effect masked by the triggering of endogenous apoptosis. However, in the Hennes line, lacking endogenous apoptosis, such an arrest is manifest as a dose-dependent maintenance at low cell density. Since the high-density cells are plated close to confluence, the difference between Alamar Blue cell survival readings after 72 hrs reflects the ability of the drug to block proliferation in the low density-plated cells. In the high density-plated cells any diminution of Alamar Blue readout vs vehicle control is due to intrinsic toxicity, not proliferation arrest, since cells were already at confluence. Thus, a compound that appears toxic (low Alamar Blue readings after 72 hrs) on the low-density plate, but which appears non-toxic (high Alamar Blue readings after 72 hrs) on the high-density plate, must be arresting proliferation, since intrinsic compound toxicity should be observed at both low and high cell densities, not selectively on the low-density plate.

E. coli ATCC25922 = assay: MIC assay, serial dilution; conditions: Escherichia coli
C. albicans ATCC 24433 = assay: Antifungal MIC assay; conditions: Candida albicans, ATCC24433
S. aureus ATCC25923 = assay: MIC assay, serial dilution; conditions: Staphylococcus aureus
A. baumannii ATCC19606 = assay: MIC assay, serial dilution; conditions: Acinetobacter baumannii
[1] = Human immunodeficiency virus 1, NL43, MT2, 96 h
[2] = ATCC25922, read-out: Anti-bacterial Activity (E. coli MIC (uM)), E. coli, Table 5

Row | Structure (SMILES) | EC50 (NL4-3 Rluc virus; [1]) [µM] | EC50 (Hennes-20 cells) [µM] | MIC (E. coli ATCC25922; [2]) [µM] | EC50 (NL4-3 Rluc virus) [µM] | MIC (C. albicans ATCC 24433) [µM] | MIC (S. aureus ATCC25923) [µg/mL] | MIC (A. baumannii ATCC19606) [µg/mL] | MIC (E. coli ATCC25922; ATCC25922, E. coli ATCC25922) [µg/mL]
1 | CCc1cc(N2CCCNCC2)cc2[s+]c3cc(N4CCCNCC4)cc(C)c3nc12 [Compound 16] | 4.8 |  |  |  |  |  |  | 
2 | c1cc2nc3ccc(N4CCC4)cc3[s+]c2cc1N1CCC1 [Compound 29] |  | < 2.5 | 25 |  |  |  |  | 
3 | CN(C)c1ccc2nc3ccc(N4CC5C(C4)C5(C)C)cc3[s+]c2c1 (stereo not drawn) [Compound 31] |  | < 2.5 | 1.6 |  |  |  |  | 
4 | CN(C)c1ccc2nc3ccc(N4CCCC4)cc3[s+]c2c1 [Compound 35] |  | 0.5 | 12.5 |  |  |  |  | 
5 | c1cc(N2CCCC2)c2nc3ccc(N4CCCC4)cc3[s+]c2c1 [Compound 38] |  | 2.5 | 6.3 |  |  |  |  | 
6 | CC(C)c1cc(N2CCCC2)cc2[s+]c3cc(N4CCCC4)ccc3nc12 [Compound 41] |  | < 0.5 | 1.6 |  |  |  |  | 
7 | Clc1cc(N2CCCC2)cc2[s+]c3cc(N4CCCC4)cc(Cl)c3nc12 [Compound 42] |  | < 12.5 | 1.6 |  |  |  |  | 
8 | Fc1cc(N2CCCC2)cc2[s+]c3cc(N4CCCC4)ccc3nc12 [Compound 43] |  | 0.5 | 3.1 |  |  |  |  | 
9 | CC(C)(C)OC(=O)NCC1CCCN1c1ccc2nc3ccc(N4CCCC4CNC(=O)OC(C)(C)C)cc3[s+]c2c1 (stereo not drawn) [Compound 49] |  | < 2.5 | 1.6 |  |  |  |  | 
10 | FC1(F)CCN(c2ccc3nc4ccc(N5CCC(F)(F)C5)cc4[s+]c3c2)C1 [Compound 53] |  | > 12.5 | 12.5 |  |  |  |  | 
11 | c1cc2nc3ccc(N4CCCCC4)cc3[s+]c2cc1N1CCCCC1 [Compound 62] |  | < 0.5 | 6.3 |  |  |  |  | 
12 | CC(C)(C)c1cc(N2CCCC2)cc2[s+]c3cc(N4CCCC4)ccc3nc12 [Compound 65] |  | < 0.5 | 3.1 |  |  |  |  | 
13 | CCc1cc(N2CCCC2)cc2[s+]c3cc(N4CCOCC4)cc(CC)c3nc12 [Compound 72] |  | < 12.5 | 25 |  |  |  |  | 
14 | CCc1cc(N(C)C)cc2[s+]c3cc(N4CCCN(C(=O)OC(C)(C)C)CC4)cc(CC)c3nc12 [Compound 74] |  | < 0.5 | 6.3 |  |  |  |  | 
15 | CCc1cc(N(CC)CC)cc2[s+]c3cc(N(CC)CC)cc(CC)c3nc12 [Compound 80] |  | < 2.5 | 25 |  |  |  |  | 
16 | CCc1cc(N(C)C)cc2[s+]c3cc(N4CCCNCC4)cc(CC)c3nc12 [Compound 87] |  |  |  | 10 |  |  |  | 
17 | Cc1cc(N2CCOCC2)cc2[s+]c3cc(N4CCOCC4)cc(C)c3nc12 [Compound 93] |  | < 12.5 | 100 |  |  |  |  | 
18 | CCc1cc(N2CCC(N(C)C)CC2)cc2[s+]c3cc(N4CCC(N(C)C)CC4)cc(C)c3nc12 [Compound 98] | 38 |  |  |  |  |  |  | 
19 | CC(C)(C)OC(=O)NC1C2CN(c3cc(N4CCCC4)cc4[s+]c5cc(N6CCCC6)ccc5nc34)CC21 (stereo not drawn) [Compound 111] |  |  |  |  | 1.6 |  |  | 
20 | COC(=O)C1C2C(CN1c1cc(N3CCCC3)cc3[s+]c4cc(N5CCCC5)ccc4nc13)C2(C)C (stereo not drawn) [Compound 116] |  |  |  |  |  | 1.6 | 6.25 | 12.5
21 | CCN(CC)c1cc(N2CCCC2)cc2[s+]c3cc(N4CCCC4)ccc3nc12 [Compound 117] |  | 12.5 |  |  | 1.6 | 1.6 | 12.5 | 25
22 | c1cc2nc3c(N4CCSC4)cc(N4CCCC4)cc3[s+]c2cc1N1CCCC1 [Compound 118] |  | 12.5 |  |  | 3.1 | 6.25 | > 100 | > 100
23 | c1cc2nc3c(N4CCCNCC4)cc(N4CCCC4)cc3[s+]c2cc1N1CCCC1 [Compound 119] |  | 12.5 |  |  | 6.25 | 25 | > 100 | 100

Row | Structure (SMILES) | EC50 (NL4-3 Rluc virus; [1]) [µM] | EC50 (Hennes-20 cells) [µM] | MIC (E. coli ATCC25922; [2]) [µM] | EC50 (NL4-3 Rluc virus) [µM] | MIC (C. albicans ATCC 24433) [µM] | MIC (S. aureus ATCC25923) [µg/mL] | MIC (A. baumannii ATCC19606) [µg/mL] | MIC (E. coli ATCC25922; ATCC25922, E. coli ATCC25922) [µg/mL]
24 | c1cc2nc3c(N4CCNCC4)cc(N4CCCC4)cc3[s+]c2cc1N1CCCC1 [Compound 120] |  | 12.5 |  |  | 100 | 100 | > 100 | > 100
25 | c1cc2nc3c(N4CCOCC4)cc(N4CCCC4)cc3[s+]c2cc1N1CCCC1 [Compound 123] |  |  |  |  | 3.1 | 6.25 | 100 | > 100
26 | CC1(C)C2CN(c3ccc4nc5c(N6CC7C(C6)C7(C)C)cc(N6CCCC6)cc5[s+]c4c3)CC21 (stereo not drawn) [Compound 124] |  |  |  |  | 1.6 | 6.25 | 12.5 | 100
27 | CC1(C)C2CN(c3cc(N4CC5C(C4)C5(C)C)c4nc5ccc(N6CCCC6)cc5[s+]c4c3)CC21 (stereo not drawn) [Compound 125] |  | 0.1 |  |  | 6.25 | 12.5 | > 100 | > 100
28 | CC(C)(C)c1cc(N2CC3C(C2)C3(C)C)cc2[s+]c3cc(N4CC5C(C4)C5(C)C)cc(N4CC5C(C4)C5(C)C)c3nc12 (stereo not drawn) [Compound 126] |  | 0.5 |  |  | 12.5 | 100 | > 100 | > 100
29 | CC1(C)C2CN(c3ccc4nc5ccc(N6CC7C(C6C(=O)O)C7(C)C)cc5[s+]c4c3)C(C(=O)O)C21 (stereo not drawn) [Compound 127] |  |  |  |  | > 100 | > 100 | > 100 | > 100
30 | COC(=O)C1C2C(CN1c1ccc3nc4ccc(N5CC6C(C5C(=O)OC)C6(C)C)cc4[s+]c3c1)C2(C)C (stereo not drawn) [Compound 129] |  |  |  |  | > 100 | 12.5 | > 100 | > 100
31 | CC(C)(C)c1cc(N2CCCC2)cc2[s+]c3cc(N4CCCC4)cc(N4CCCC4)c3nc12 [Compound 130] |  |  |  |  | 6.25 | 6.25 | 6.25 | 12.5
32 | CC(C)(C)c1cc(N2CCCC2)cc2[s+]c3cc(N4CCCC4)cc(Br)c3nc12 [Compound 132] |  |  |  |  | 12.5 | 6.25 | 12.5 | 100
33 | CC(C)(C)c1cc([N+]2([O-])CCCC2)cc2[s+]c3cc(N4CCCC4)ccc3nc12 [Compound 133] |  |  |  |  | 100 | 12.5 | 100 | > 100
34 | c1cc2nc3ccc(N4CC5CNCC5C4)cc3[s+]c2cc1N1CC2CNCC2C1 (stereo not drawn) [Compound 134] |  | 12.5 |  |  | > 100 | > 100 | > 100 | > 100
35 | C1=CCN(c2ccc3nc4ccc(N5CC=CC5)cc4[s+]c3c2)C1 [Compound 136] |  |  |  |  | > 100 | 25 | > 100 | > 100
36 | c1cc2nc3ccc(N4CCNC4)cc3[s+]c2cc1N1CCNC1 [Compound 137] |  |  |  |  | > 100 | > 100 | > 100 | > 100
37 | c1cc2nc3ccc(N4CCCNCC4)cc3[s+]c2cc1N1CCCNCC1 [Compound 139] |  |  |  |  | > 100 | > 100 | > 100 | > 100
38 | CC(C)(C)OC(=O)N1CCCN(c2ccc3nc4ccc(N5CCCN(C(=O)OC(C)(C)C)CC5)cc4[s+]c3c2)CC1 [Compound 140] |  |  |  |  | > 100 | > 100 | > 100 | > 100
39 | c1cc2nc3ccc(N4CCCOCC4)cc3[s+]c2cc1N1CCCOCC1 [Compound 141] |  |  |  |  | > 100 | 100 | > 100 | > 100
40 | c1cc2nc3ccc(N4CCSCC4)cc3[s+]c2cc1N1CCSCC1 [Compound 143] |  |  |  |  | > 100 |  |  | 
41 | c1cc2nc3c(N4CCCC4)cc(N4CCCC4)cc3[s+]c2cc1N1C2CCCC1CC2 [Compound 145] |  |  |  |  | 1.6 | 1.6 | 6.25 | 25
42 | c1cc2nc3ccc(N4C5CCCC4CC5)cc3[s+]c2cc1N1C2CCCC1CC2 [Compound 146] |  |  |  |  | 6.25 | 3.1 | 25 | > 100
43 | CC1(C)C2CN(c3ccc4nc5ccc(N6C7CCCC6CC7)cc5[s+]c4c3)CC21 (stereo not drawn) [Compound 147] |  |  |  |  | 3.1 | 1.6 | 25 | 100
44 | c1ccc2c(c1)Sc1ccccc1N2c1ccc2nc3ccc(N4C5CCCC4CC5)cc3[s+]c2c1 [Compound 148] |  |  |  |  | 100 | 25 | 100 | > 100
45 | CC1(C)C2CN(c3ccc4nc5ccc(N6CCCC6)cc5[s+]c4c3)CC21 (stereo not drawn) [Compound 150] |  |  |  |  | 1.6 | 1.6 | 25 | 100
